Results published in patent US6706663B2, “Herbicidal 3-heterocyclic substituted benzisothiazole and benzisoxazole compounds” (Wyeth, priority 2000, dated 2004).

How the values were obtained:
GALAP (Galium aparine) [1] = experiment: Postemergence herbicidal evaluation; assay type: in vivo; settings: postemergence
Procedure, shortened: (§1)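 Seedlings grown about two weeks in flats, sprayed, then kept under standard greenhouse care. Rated visually 4–5 weeks after treatment on a 0–9 scale (stand, vigour, malformation, size, chlorosis, overall appearance) relative to untreated control; repeat tests averaged.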

SETVI (Setaria viridis) [2] = experiment: Postemergence herbicidal evaluation; assay type: in vivo, (L.) Beau; settings: postemergence
Procedure, shortened: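 ~2-wk seedlings; spray 0.0040–1.000 kg/ha in 50/50 acetone/water + 0.5% TWEEN 20, 40 psi nozzle. Greenhouse hold; visual 0–9 rating vs control at 4–5 wk; multiple tests averaged.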

[3] = test system: GLXMAW (Soybean, Williams); experiment: Postemergence herbicidal evaluation; assay type: in vivo, Glycine max, (L.) Merr. cv Williams; settings: postemergence
Procedure, shortened: as §1

GALAP (Galium aparine) [4] = experiment: Preemergence herbicidal evaluation; assay type: in vivo; settings: rated 4-5 weeks after treatment
Procedure, shortened: (§2)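 Seeds planted in potting soil cups and sprayed preemergence with aqueous acetone compound solution. Greenhouse-grown; rated 4–5 weeks after treatment on a 0-9 visual scale (stand, vigor, malformation, size, chlorosis, appearance) versus control.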

[5] = test system: IPOHE (Ipomoea hederacea); experiment: Preemergence herbicidal evaluation; assay type: in vivo, (L.) Jacq.; settings: rated 4-5 weeks after treatment
[6] = test system: ECHCG (Echinochloa crus-galli); experiment: Preemergence herbicidal evaluation; assay type: in vivo, (L.) Beau; settings: rated 4-5 weeks after treatment
Procedure, shortened: as §2

SETVI (Setaria viridis) [7] = experiment: Preemergence herbicidal evaluation; assay type: in vivo, (L.) Beau; settings: rated 4-5 weeks after treatment
Procedure, shortened: as §2

[8] = test system: GLXMAW (Soybean, Williams); experiment: Preemergence herbicidal evaluation; assay type: in vivo, Glycine max, (L.) Merr. cv Williams; settings: rated 4-5 weeks after treatment
ZEAMX (Corn, Field) = experiment: Preemergence herbicidal evaluation; assay type: in vivo, Zea mays, L.; settings: rated 4-5 weeks after treatment
CYPIR (Cyperus iria) [9] = experiment: Flooded paddy, preemergence weed control; assay type: in vivo; settings: rated 3-4 weeks after treatment, 0-9 rating scale
Procedure, shortened: (§3)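 Plants were established from seed or propagating organs in flooded silt loam, with the water surface held 1.5 to 3 cm above the soil for the entire experiment. Injury was assessed visually against a control and given a 0-9 score.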

[10] = test system: MOOVA (Monochoria vaginalis); experiment: Flooded paddy, preemergence weed control; assay type: in vivo, Presl.; settings: rated 3-4 weeks after treatment, 0-9 rating scale
Procedure, shortened: as §3

[11] = test system: ECHORC (Echinochloa oryzoides); experiment: Flooded paddy, postemergence weed control; assay type: in vivo, Echinochloa oryzoides (Ard.) Fritsch.; settings: postemergence weeds, rated 3-4 weeks after treatment
Procedure, shortened: (§4)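 Weeds 3–5 cm tall and rice at 1.5–2.5 leaf stage in containers flooded 1.5–3 cm deep; compounds in 50/50 v/v aqueous/acetone injected into flood water at about 0.0320–0.2500 kg/ha. Greenhouse-held; visual 0–9 rating versus untreated control after three to four weeks.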

CYPIR (Cyperus iria) [12] = experiment: Flooded paddy, postemergence weed control; assay type: in vivo; settings: postemergence weeds, rated 3-4 weeks after treatment
Procedure, shortened: as §4

[13] = test system: CYPSE (Cyperus serotinus); experiment: Flooded paddy, postemergence weed control; assay type: in vivo, Rottb.; settings: postemergence weeds, rated 3-4 weeks after treatment
Procedure, shortened: as §4

[14] = test system: MOOVA (Monochoria vaginalis); experiment: Flooded paddy, postemergence weed control; assay type: in vivo, Presl.; settings: postemergence weeds, rated 3-4 weeks after treatment
Procedure, shortened: as §4

[15] = test system: SAGPY (Sagittaria pygmaea); experiment: Flooded paddy, postemergence weed control; assay type: in vivo, L.; settings: postemergence weeds, rated 3-4 weeks after treatment
Procedure, shortened: as §4

ORYSAT (Rice, Tebonnet) = experiment: Flooded paddy, post-transplant and postemergence rice tolerance; assay type: in vivo, Oryza sativa, (L.) Tebonnet; settings: post-transplant rice, rated 3-4 weeks after treatment
Procedure, shortened: as §4

Cn1c(C(F)(F)F)cc(=O)n(-c2ccc3snc(-c4nccs4)c3c2)c1=O [Compound 53, 1-methyl-3-[3-(2-thiazolyl)-1,2-benzisothiazol-5-yl]-6-(trifluoromethyl)uracil]
1.0: Preemergence herbicidal rating IPOHE ([5]; Rate 0.0620 kg/ha) | Preemergence herbicidal rating GLXMAW ([8]; Rate 0.0620 kg/ha)
4.5: Preemergence herbicidal rating ECHCG ([6]; Rate 0.1250 kg/ha)
9.0: SETVI herbicidal rating (SETVI (Setaria viridis) [2]; rate 0.1250 kg/ha) | Preemergence herbicidal rating GALAP (GALAP (Galium aparine) [4]; Rate 0.2500 kg/ha) | Preemergence herbicidal rating SETVI (SETVI (Setaria viridis) [7]; Rate 0.0620 kg/ha) | Preemergence herbicidal rating SETVI (SETVI (Setaria viridis) [7]; Rate 0.1250 kg/ha) | Preemergence herbicidal rating SETVI (SETVI (Setaria viridis) [7]; Rate 0.2500 kg/ha) | herbicidal rating, CYPIR (CYPIR (Cyperus iria) [9]; rate 0.0080 kg/ha) | herbicidal rating, CYPIR (CYPIR (Cyperus iria) [9]; rate 0.1250 kg/ha) | herbicidal rating, MOOVA ([10]; rate 0.0080 kg/ha) | herbicidal rating, MOOVA ([10]; rate 0.0320 kg/ha) | herbicidal rating, MOOVA ([10]; rate 0.1250 kg/ha)
6.8: GLXMAW herbicidal rating ([3]; rate 0.0320 kg/ha)
6.5: Preemergence herbicidal rating GLXMAW ([8]; Rate 0.2500 kg/ha)
6.0: herbicide rating (0-9) ORYSAT (rice tolerance) (ORYSAT (Rice, Tebonnet); 0.1250 kg/ha into flood water)
5.0: Preemergence herbicidal rating ZEAMX (ZEAMX (Corn, Field); Rate 0.1250 kg/ha)
4.0: Preemergence herbicidal rating ZEAMX (ZEAMX (Corn, Field); Rate 0.0620 kg/ha) | herbicide rating (0-9) ORYSAT (rice tolerance) (ORYSAT (Rice, Tebonnet); 0.0620 kg/ha into flood water)
7.0: GALAP herbicidal rating (GALAP (Galium aparine) [1]; rate 0.1250 kg/ha) | Preemergence herbicidal rating ZEAMX (ZEAMX (Corn, Field); Rate 0.2500 kg/ha) | herbicide rating (0-9) ECHORC ([11]; 0.0620 kg/ha into flood water) | herbicide rating (0-9) CYPIR (CYPIR (Cyperus iria) [12]; 0.1250 kg/ha into flood water)
5.5: SETVI herbicidal rating (SETVI (Setaria viridis) [2]; rate 0.0620 kg/ha)
0.0: herbicide rating (0-9) CYPIR (CYPIR (Cyperus iria) [12]; 0.0320 kg/ha into flood water) | herbicide rating (0-9) CYPSE ([13]; 0.0320 kg/ha into flood water) | herbicide rating (0-9) MOOVA ([14]; 0.0320 kg/ha into flood water) | herbicide rating (0-9) MOOVA ([14]; 0.0620 kg/ha into flood water) | herbicide rating (0-9) SAGPY ([15]; 0.0320 kg/ha into flood water) | herbicide rating (0-9) SAGPY ([15]; 0.0620 kg/ha into flood water) | herbicide rating (0-9) SAGPY ([15]; 0.1250 kg/ha into flood water)
2.0: Preemergence herbicidal rating ECHCG ([6]; Rate 0.0620 kg/ha) | herbicide rating (0-9) ECHORC ([11]; 0.0320 kg/ha into flood water) | herbicide rating (0-9) MOOVA ([14]; 0.1250 kg/ha into flood water) | herbicide rating (0-9) ORYSAT (rice tolerance) (ORYSAT (Rice, Tebonnet); 0.0320 kg/ha into flood water)
2.5: GALAP herbicidal rating (GALAP (Galium aparine) [1]; rate 0.0320 kg/ha) | SETVI herbicidal rating (SETVI (Setaria viridis) [2]; rate 0.0320 kg/ha) | Preemergence herbicidal rating GLXMAW ([8]; Rate 0.1250 kg/ha)
8.5: Preemergence herbicidal rating ECHCG ([6]; Rate 0.2500 kg/ha)
3.0: GALAP herbicidal rating (GALAP (Galium aparine) [1]; rate 0.0620 kg/ha) | Preemergence herbicidal rating IPOHE ([5]; Rate 0.1250 kg/ha)
8.0: GLXMAW herbicidal rating ([3]; rate 0.1250 kg/ha) | Preemergence herbicidal rating GALAP (GALAP (Galium aparine) [4]; Rate 0.0620 kg/ha) | Preemergence herbicidal rating GALAP (GALAP (Galium aparine) [4]; Rate 0.1250 kg/ha) | Preemergence herbicidal rating IPOHE ([5]; Rate 0.2500 kg/ha) | herbicide rating (0-9) ECHORC ([11]; 0.1250 kg/ha into flood water) | herbicide rating (0-9) CYPSE ([13]; 0.0620 kg/ha into flood water) | herbicide rating (0-9) CYPSE ([13]; 0.1250 kg/ha into flood water)
8.3: GLXMAW herbicidal rating ([3]; rate 0.0620 kg/ha) | herbicidal rating, CYPIR (CYPIR (Cyperus iria) [9]; rate 0.0320 kg/ha)

Cn1c(C(F)(F)F)cc(=O)n(-c2cc3c(C4OCCO4)nsc3cc2F)c1=O [Compound 61, 3-[3-(1,3-dioxolan-2-yl)-6-fluoro-1,2-benzisothiazol-5-yl]-1-methyl-6-(trifluoromethyl)uracil]
7.5: SETVI herbicidal rating (SETVI (Setaria viridis) [2]; rate 0.0320 kg/ha)
8.7: herbicidal rating, CYPIR (CYPIR (Cyperus iria) [9]; rate 0.0080 kg/ha)
8.5: Preemergence herbicidal rating GALAP (GALAP (Galium aparine) [4]; Rate 0.0160 kg/ha) | herbicidal rating, MOOVA ([10]; rate 0.0080 kg/ha)
8.3: Preemergence herbicidal rating ZEAMX (ZEAMX (Corn, Field); Rate 0.0160 kg/ha)
8.0: SETVI herbicidal rating (SETVI (Setaria viridis) [2]; rate 0.0620 kg/ha) | herbicide rating (0-9) SAGPY ([15]; 0.0620 kg/ha into flood water)
6.0: herbicide rating (0-9) SAGPY ([15]; 0.0320 kg/ha into flood water)
9.0: GALAP herbicidal rating (GALAP (Galium aparine) [1]; rate 0.0320 kg/ha) | GLXMAW herbicidal rating ([3]; rate 0.0320 kg/ha) | Preemergence herbicidal rating GALAP (GALAP (Galium aparine) [4]; Rate 0.0320 kg/ha) | Preemergence herbicidal rating IPOHE ([5]; Rate 0.0160 kg/ha) | Preemergence herbicidal rating IPOHE ([5]; Rate 0.0320 kg/ha) | Preemergence herbicidal rating ECHCG ([6]; Rate 0.0160 kg/ha) | Preemergence herbicidal rating ECHCG ([6]; Rate 0.0320 kg/ha) | Preemergence herbicidal rating SETVI (SETVI (Setaria viridis) [7]; Rate 0.0160 kg/ha) | Preemergence herbicidal rating SETVI (SETVI (Setaria viridis) [7]; Rate 0.0320 kg/ha) | Preemergence herbicidal rating GLXMAW ([8]; Rate 0.0160 kg/ha) | Preemergence herbicidal rating GLXMAW ([8]; Rate 0.0320 kg/ha) | Preemergence herbicidal rating ZEAMX (ZEAMX (Corn, Field); Rate 0.0320 kg/ha) | herbicidal rating, CYPIR (CYPIR (Cyperus iria) [9]; rate 0.0320 kg/ha) | herbicidal rating, CYPIR (CYPIR (Cyperus iria) [9]; rate 0.1250 kg/ha) | herbicidal rating, MOOVA ([10]; rate 0.0320 kg/ha) | herbicidal rating, MOOVA ([10]; rate 0.1250 kg/ha) | herbicide rating (0-9) ECHORC ([11]; 0.0320 kg/ha into flood water) | herbicide rating (0-9) ECHORC ([11]; 0.0620 kg/ha into flood water) | herbicide rating (0-9) ECHORC ([11]; 0.1250 kg/ha into flood water) | herbicide rating (0-9) CYPIR (CYPIR (Cyperus iria) [12]; 0.0320 kg/ha into flood water) | herbicide rating (0-9) CYPIR (CYPIR (Cyperus iria) [12]; 0.0620 kg/ha into flood water) | herbicide rating (0-9) CYPIR (CYPIR (Cyperus iria) [12]; 0.1250 kg/ha into flood water) | herbicide rating (0-9) CYPSE ([13]; 0.0320 kg/ha into flood water) | herbicide rating (0-9) CYPSE ([13]; 0.0620 kg/ha into flood water) | herbicide rating (0-9) CYPSE ([13]; 0.1250 kg/ha into flood water) | herbicide rating (0-9) MOOVA ([14]; 0.0320 kg/ha into flood water) | herbicide rating (0-9) MOOVA ([14]; 0.0620 kg/ha into flood water) | herbicide rating (0-9) MOOVA ([14]; 0.1250 kg/ha into flood water) | herbicide rating (0-9) SAGPY ([15]; 0.1250 kg/ha into flood water) | herbicide rating (0-9) ORYSAT (rice tolerance) (ORYSAT (Rice, Tebonnet); 0.0320 kg/ha into flood water) | herbicide rating (0-9) ORYSAT (rice tolerance) (ORYSAT (Rice, Tebonnet); 0.0620 kg/ha into flood water) | herbicide rating (0-9) ORYSAT (rice tolerance) (ORYSAT (Rice, Tebonnet); 0.1250 kg/ha into flood water)
0.0: Preemergence herbicidal rating GALAP (GALAP (Galium aparine) [4]; Rate 0.0002 kg/ha) | Preemergence herbicidal rating IPOHE ([5]; Rate 0.0002 kg/ha) | Preemergence herbicidal rating ECHCG ([6]; Rate 0.0002 kg/ha) | Preemergence herbicidal rating SETVI (SETVI (Setaria viridis) [7]; Rate 0.0002 kg/ha) | Preemergence herbicidal rating GLXMAW ([8]; Rate 0.0002 kg/ha) | Preemergence herbicidal rating ZEAMX (ZEAMX (Corn, Field); Rate 0.0002 kg/ha)
